Experimental data: US20220267720A1, “FIBROSIS-SPECIFIC CELL CULTURE SUBSTRATE AND METHODS OF USE” (Xylyx Bio, Inc., priority 2019, published 2022)
Each block holds one molecule with its values, some of them ahead of it.

What was measured:
[1] = Diffusivity of fluorescent trackers through liver ECM hydrogels; type: physicochemical
From the text: Physiochemical characterizations of fibrotic and normal human liver matrix hydrogels.

[2] = test system: human hepatic stellate cells (HSC); test: IC50 response of hepatic stellate cells to Erlotinib, XTT assay; type: cell-based; details: HSC on fibrotic or normal soluble ECM or plastic, 72 hours with drug
Protocol: Methods: Primary human hepatocytes, HepG2 cells (human hepatocarcinoma cell type commonly used to model hepatocytes), and human hepatic stellate cells (HSC) were cultured for up to 7 days on normal or fibrotic human liver matrix scaffolds, Matrigel, collagen I hydrogels, and/or tissue culture plates (plastic) with or without collagen I coating.
HSCs differentially expressed fibrosis-related genes ACTA2, COL1A1 LOXL2 and PDGFR2 in liver scaffolds versus tissue plastic and Coll coated plates (FIG. 11B). […] Although morphologic similarities were observed between HSC cultured in fibrotic and normal liver ECM scaffolds, morphology differed from HSC cultured on artificial substrates (FIG. 11C). […] To test whether HSC cultured on different ECM respond differently to drug treatment then cells grown in standard 2D we measured the IC50 response of HSC to Erlotinib, an inhibitor of the epidermal growth factor receptor (EGFR) tyrosine, used for the treatment for several cancers and currently is in clinical trials for the treatment of hepatocarcinomatous originating from cirrhotic livers (FIG. 11F). 5000 cells were plated on 96 wells on fibrotic or normal ECM soluble ECM and on plastic. 24 hours later Erlotinib or DMSO vehicle in different concentrations was added. Cells were grown with drugs for 72 hours (with media+drug replenished every day). Cell number were assed using a standard XTT assay.

[3] = test system: pulmonary fibroblasts; test: Gene expression of fibroblasts in IPF matrix scaffolds treated with antifibrotic agent; type: cell-based, human
[4] = test system: pulmonary fibroblasts; test: Growth curves of pulmonary fibroblasts in IPF and normal lung matrix scaffolds exposed to antifibrotic agent; type: cell-based, human
[5] = test system: Normal HSC; test: Ki67 immunofluorescence imaging of HSC in fibrotic human liver ECM hydrogel; type: cell-based; details: for Ki67 positive cells after Pirfenidone treatment: 2.7 mM Pirfenidone; for proliferating Ki67+ cells (change): fibrotic liver ECM hydrogel, TGFβ1 25 nM, Pirfenidone 2.7 mM, readout day 5
Protocol: (§1) Normal HSC were cultured in fibrotic human liver ECM hydrogel for up to 5 days. Cells were cultured in fibrotic liver ECM hydrogel for 2 days, then TGFβ1 (25 nM) was added to induce activation, along with 2.7 mM Pirfenidone (FDA-approved gold standard anti-fibrotic drug) or DMSO vehicle (1%) control for 3 days prior to assay readouts on day 5. Cell-based proliferation assay, immunofluorescence imaging in multi-well plates, and Elisa for ProCollagen1 were performed. […] Conclusions: We confirmed compatibility of normal & fibrotic liver ECM hydrogel with common analytical techniques & assays used in early-stage drug development including discovery, screening, target validation.

[6] = test system: Normal HSC; test: Cell-based proliferation assay of HSC in fibrotic human liver ECM hydrogel; details: TGFβ1 25 nM, Pirfenidone 2.7 mM, 3 days, readout day 5
Protocol: as §1

[7] = test system: Normal human pulmonary fibroblasts; test: Proliferation and myofibroblast differentiation assay in fibrotic human lung ECM hydrogel; type: cell-based
Protocol: Normal human pulmonary fibroblasts were cultured in fibrotic human lung ECM hydrogel for up to 5 days and subjected to live cell imaging with CellTracker™ red, immunofluorescence imaging in multi-well plates, and a common cell-based proliferation assay. Cells were cultured in fibrotic lung ECM hydrogel for 2 days, then TGFβ1 (5 nM) was added to induce myofibroblast differentiation, along with 2.7 mM Pirfenidone (FDA-approved gold standard anti-fibrotic drug) or DMSO vehicle ([…]) control for […] prior to assay readouts on day 5. […] After 48 hours, 1standard immunofluorescence staining was performed in situ in 96-well plates. Fibroblasts expressed vimentin, αSMA, and proliferation marker Ki67 (white arrows, FIG. 21B).

[8] = fibroblasts in IPF matrix scaffolds
[9] = fibrotic lung ECM scaffolds compared to tissue culture plastic

- diffusion rate [1]: > 2 mm h^−1
Molecule: CC1=CC(C)(C)N(C)c2cc3[o+]c4cc5c(cc4c(-c4cc(NC(=O)c6ccc(CCl)cc6)ccc4C(=O)[O-])c3cc21)C(C)=CC(C)(C)N5C.CC1=CC(C)(C)N(C)c2cc3[o+]c4cc5c(cc4c(-c4ccc(NC(=O)c6ccc(CCl)cc6)cc4C(=O)[O-])c3cc21)C(C)=CC(C)(C)N5C [CellTracker Red CMTPX]

Molecule: C#Cc1cccc(Nc2ncnc3cc(OCCOC)c(OCCOC)cc23)c1 [Erlotinib]
- IC50 response of HSC to Erlotinib [2]: lower for cells on normal ECM compared to fibrotic ECM and higher for plastic cultured cells

Molecule: Cc1ccc(-c2ccc3c(ccc4sc5c(c43)NC[C@@H](C)NC5=O)n2)cn1 [PF3644022]
- expression of ACTA2 [3, 8]: consistently reduced
- expression of COL1A1 [3, 8]: consistently reduced
- expression of YAP1 [3, 8]: No significant differences
- expression of genes associated with ECM production [3, 9]: downregulation
- growth of fibroblasts, sensitivity and drug response ([4]; fibroblasts in IPF matrix scaffolds versus normal lung matrix scaffolds): greater sensitivity and drug response
- growth of fibroblasts versus untreated cells ([4]; fibroblasts in normal lung matrix scaffolds, after 6 days): not significantly different from untreated cells
- sensitivity and drug response [4, 9]: greater sensitivity and drug response

Molecule: Cc1ccc(=O)n(-c2ccccc2)c1 [Pirfenidone]
- Ki67 positive cells after Pirfenidone treatment ([5]; HSC on liver ECM): ~20%
- Ki67 positive cells after Pirfenidone treatment ([5]; HSC on plastic): over 50%
- proliferating Ki67+ cells (change) [5]: significantly reduced
- cell proliferation [6]: slowed cell proliferation
- proliferation of lung fibroblasts ([7]; 2.7 mM Pirfenidone with TGFβ1 5 nM, readout day 5): decrease proliferation

Molecule: TGFβ: transforming growth factor beta, added to induce activation / myofibroblast differentiation
- proliferating Ki67+ cells (change) [5]: significantly changed
- cell proliferation [6]: accelerated cell proliferation
- αSMA ([7]; TGFβ1 5 nM): increased
